Patent US20260325504A1, “Genetically Engineered Human Pituitary Corticotroph Tumor Organoids Exhibit Divergent Responses to Selective Glucocorticoid Receptor Modulators” (Corcept Therapeutics Incorporated, priority 2022, published 2026)
“Also recorded” adds a separate entry of the source.

Legend:
[1] = tested on: estrogen receptor; conditions: cited from earlier work
[2] = tested on: SSTR5; assay: Differential expression of SSTR5 (qRT-PCR) in iPSC generated pituitary organoids; assay type: cell-based, human; conditions: for SSTR5 induction relative to SSTR2: PitNET organoids, summary; for expression of SSTR5: 500 nM, vs vehicle
Experimental: (§1) Sonic Hedgehog (SHH) was withdrawn from the organoid growth media 16 hours prior to treatment. The experimental treatment groups included: vehicle (Veh), mifepristone (500 nM, Selleckchem S2606), GANT61 (5 μM, Stemcell Technologies 73692), ketoconazole (Keto, 10 μM, Selleckchem S1353), pasireotide (Pas, 100 nM, Target Mol TP2207-SB001), octreotide (Oct, 100 nM, Selleckchem P1017), mifepristone plus GANT61, mifepristone plus Keto, mifepristone plus Pas, relacorilant (500 nM, Corcept Therapeutics CORT125134), relacorilant plus Pas, relacorilant plus Oct, or dexamethasone (Dexa, 100 nM, SIGMA S4902). In the combination treatments, cultures were pretreated with the GANT61, Keto, Pas or Oct for 2 hours prior to treatment with mifepristone or Rela. PitNET tissue derived organoids hPITO36, hPITO37, hPITO38, hPITO39, and hPITO40 were treated with the following experimental conditions: Vehicle (1), pasireotide (2), relacorilant (3), relacorilant & pasireotide (4), mifepristone (5), mifepristone & pasireotide (6). The IC50 values used for each hPITO line for each drug were determined based on dose responses (FIG. 12). All organoid cultures were treated for 48 hours prior to analysis.
RNA was extracted from PitNET tissue or iPSC generated organoids using TRI Reagent® (Molecular Research Center Inc TR118) and the High Capacity cDNA Reverse Transcription Kit (Applied Biosystems, Foster City, CA) was used for cDNA synthesis of RNA following the recommended protocol. For each sample, 60 ng RNA was reverse transcribed to yield approximately […] total cDNA that was then used for the qRT-PCR. Pre-designed real-time polymerase chain reaction assays were purchased for the following genes: TPit (Thermo Fisher Scientific 4331182 Hs00193027), SF1 (Thermo Fisher Scientific 4331182 Hs00610436), SSTR2 (Thermo Fisher Scientific 4331182 Hs00265624_s1), SSTR5 (Thermo Fisher Scientific 4331182 Hs00990407_s1), POMC (Thermo Fisher Scientific 4331182 Hs01596743_ml), hPRT (Thermo Fisher Scientific 4331182 Hs02800695_ml), and FKBP5 (Thermo Fisher Scientific 4331182 Hs01561006_m1). Polymerase chain reaction amplifications were performed in a total volume of 20 μL containing 20× TaqMan Expression Assay primers, 2× TaqMan Universal Master Mix (Applied Biosystems, TaqMan® Gene Expression Systems), and cDNA template. Each polymerase chain reaction amplification was performed in triplicate wells in a StepOne Real-Time PCR System (Applied Biosystems) by using the following conditions: 500C 2 minutes, 95° C. 10 minutes, 95° C. 15 seconds (denature) and 60° C. 1 minute (anneal/extend) for 40 cycles. Fold change was calculated as the following: (Ct-Ct high)=n target, 2ntarget/2nHPRT=fold change where Ct=threshold cycle. The results were expressed as average fold change in or differential gene expression relative to control, with HPRT used as an internal control according to Livak and Schmittgen.

[3] = tested on: iPSC^USP48MV organoids; assay: Nuclear morphometric analysis (nuclear irregularity index), iPSCUSP48MV organoids; assay type: cell-based, human; conditions: 500 nM, 48 h
Experimental: Nuclear Morphometric Analysis (NMA) using treated organoids was performed based on a published protocol that measures cell viability based on the changes in nuclear morphology of the cells using nuclear stain Hoechst or DAPI [31]. Images of organoid nuclei were analyzed using the ImageJ Nuclear Irregularity Index (NII) plugin for key parameters that included cell area, radius ratio, area box, aspect, and roundness. Using the published spreadsheet template, the NII of each cell was calculated with the following formula: NII=Aspect−Area Box+Radius Ratio+Roundness. The area vs NII of vehicle-treated cells were plotted as a scatter plot using the template and considered as the normal cell nuclei. […] The percentage of cells in each NII classification category were calculated and plotted as a histogram using GraphPad Prism.
Sonic Hedgehog (SHH) was withdrawn from the organoid growth media 16 hours prior to treatment. […] The IC50 values used for each hPITO line for each drug were determined based on dose responses (FIG. 12). […]

[4] = tested on: iPSC^ctrl organoids; assay: EdU uptake (proliferation) in iPSCctrl organoids; assay type: cell-based, human; conditions: compound alone, 500 nM, 48 h
Experimental: iPSCs were stained for pituitary specific hormones including luteinizing hormone (LH), follicle-stimulating hormone (FSH), growth hormone (GH), prolactin (PRL), ACTH, cytokeratin 8/18 (CAM5.2), pituitary transcription factor PIT-1 and neuroendocrine marker Synaptophysin (Table 5). Cultures were immunostained for proliferation marker EdU (Click-IT EdU Alexa Fluor 555 Imaging Kit, Thermo Fisher Scientific C10338). Antibody dilutions were determined based on manufacturer guidelines and antibody titration (Table 5). Staining was conducted according to previously published protocols. Briefly, organoids and iPSCs grown in 8-well glass bottom chamber slides were fixed using 3.7% formaldehyde, washed with DPBS, permeabilized with 0.5% Triton X-100 (SIGMA X-100, PBS-T, 20 min at room temperature), washed with 0.01% PBS-T, and blocked with 2% donkey serum (Jackson Immuno Research 017-000-121) for 1 hour at room temperature. After blocking, primary antibodies were added and incubated overnight at 4° C. Slides were washed with 0.01% PBS-T and incubated with secondary antibodies (Table 5) with Hoechst (Thermo Fisher Scientific H1399) for 1 hour at room temperature. Organoids were washed and stored in PBS at 4° C. until microscopic analysis. High content confocal microscopy was performed using the Nikon Ti2-E Inverted Microscope (with a Crest X-Light V2 L-FOV Spinning Disk Confocal) at the University of Arizona Cancer Center, or a ZEISS LSM880 34 channel Laser Scanning Confocal Microscope at University of Arizona Marley Imaging Core. Fluorescence intensity was quantified as the percentage of marker-positive cells versus total cells, using Nikon Elements Software (Version 5.21.05). Proliferation for each iPSC line was quantified as the percentage of EdU-positive cells versus total cells.
as §1, with “PitNET tissue derived organoids hPITO36, hPITO37, hPITO38, hPITO39, and hPITO40 were treated with the following experimental conditions: Vehicle (1), pasireotide (2), relacorilant (3), relacorilant & pasireotide (4), mifepristone (5), mifepristone & pasireotide (6).” left out, “All organoid cultures were treated for 48 hours prior to analysis.” left out

[5] = tested on: ovarian cancer cell lines; conditions: in vitro; cited from earlier work

## Cn1cc(S(=O)(=O)N2CCC3=Cc4c(cnn4-c4ccc(F)cc4)C[C@]3(C(=O)c3cc(C(F)(F)F)ccn3)C2)cn1 [relacorilant, (R)-(1-(4-fluorophenyl)-6-((1-methyl-1H-pyrazol-4-yl)sulfonyl)-4,4a,5,6,7,8-hexahydro-1H-pyrazolo[3,4-g]isoquinolin-4a-yl) (4-(trifluoromethyl)pyridin-2-yl) methanone]
[1]
  binding to the estrogen receptor: no detectable binding
[2]
  SSTR5 induction relative to SSTR2: predominantly induced SSTR5 expression; also recorded: greater induction of SSTR5 expression as compared to SSTR2
[2]; listed as Relacorilant
  SSTR5 induction relative to SSTR2: predominantly induces SSTR5
[2]; iPSC organoids, 500 nM each, 48 h, FIG. 5B
  induction in SSTR5 expression, relacorilant compared to mifepristone: induced greater SSTR5 expression
[2]; iPSC organoids, 48 h
  expression of SSTR5: significant induction; also recorded: significantly induced the expression
[3]
  apoptotic cells by nuclear irregularity index (NII): significant expression pattern of nuclear morphology consistent with increased apoptotic cells; also recorded: consistent with increased apoptosis cells
[4]
  proliferation (EdU uptake): did not induce organoid proliferation
[5]
  apoptosis: induces apoptosis

## CC#C[C@]1(O)CC[C@H]2[C@@H]3CCC4=CC(=O)CCC4=C3[C@@H](c3ccc(N(C)C)cc3)C[C@@]21C [mifepristone, 11β-(4-dimethylaminophenyl)-17ß-hydroxy-17α-(1-propynyl)-estra-4,9-dien-3-one]
[2]; iPSC organoids, 48 h
  expression of SSTR5: significant induction; also recorded: significantly induced the expression
[2]; iPSCctrl organoids, compound alone, 48 h, FIG. 5C, D
  differential expression of SSTR5: significantly induced
[3]
  apoptotic cells by nuclear irregularity index (NII): not observed; also recorded: induces apoptosis in neither the tumor organoid iPSC^USP48MV nor the control organoid iPSC^ctrl
[4]
  proliferation (EdU uptake): significant increase in cell proliferation
